Reference: US20240156754A1, “POWDER COMPOSITION FOR DISINFECTION OF THE TEATS OF DAIRY ANIMALS” (KLARECO SRL, priority 2022, published 2024)
“And” between values parts separate entries of the source, which are not always exact repeats. Identical values can stand only once.

Test: Accelerated stability test (30° C., 65% RH, 18 weeks)
Type: physicochemical
Protocol: Accelerated stability test has been carried what to assess the quality of a test item prepared as the one in Example 7 during time, under the influence of temperature and humidity.
The test was conducted at 30° C., at 65% of relative humidity (RH), for 18 weeks.
[…], assessing: the appearance of each container (the one containing chloramine T and the one containing the excipients), appearance of the products therein, the weight loss of the products and the content of chloramine T.
Appearance of the test item and of the packaging was assessed under the lab light. Weight loss was assessed weighing each sample at T0 (WT0) and at the final time point (WTx) and compared with their initial value (%) according to the following formula:
Weight loss from initial %=[(WT0−WTx)*100]/(WT0)
The content of chloramine T was assessed as described in Example 7.

[1] = T8 w, single determination, 30° C./65% RH
[2] = T18 w, single determination, 30° C./65% RH

Available Chlorine, average (T0, average): 24.53 % w/w
CHLORAMINE T anhydrous, average (T0, average): 97.46 % w/w
CHLORAMINE T tri-hydrated, average (T0, average): 78.76 % w/w
CHLORAMINE T anhydrous (T0, single determination): 97.61 % w/w and 97.31 % w/w
CHLORAMINE T tri-hydrated (T0, single determination): 78.88 % w/w and 78.64 % w/w
Available Chlorine (T0, single determination, chloramine T container of kit): 24.57 % w/w and 24.49 % w/w
Available Chlorine, average (T8 w, average, 30° C./65% RH): 0.18 % w/w
CHLORAMINE T anhydrous, average (T8 w, average, 30° C./65% RH): 0.73 % w/w
CHLORAMINE T tri-hydrated, average (T8 w, average, 30° C./65% RH): 0.59 % w/w
Available Chlorine [1]: 0.18 % w/w
CHLORAMINE T anhydrous [1]: 0.73 % w/w
CHLORAMINE T tri-hydrated [1]: 0.59 % w/w
Tx/T0 %, Available Chlorine (T18 w versus T0, 30° C./65% RH): 100.4%
Tx/T0 %, CHLORAMINE T anhydrous (T18 w versus T0, 30° C./65% RH): 100.4%
Tx/T0 %, CHLORAMINE T tri-hydrated (T18 w versus T0, 30° C./65% RH): 100.4%
Available Chlorine, average (T18 w, average, 30° C./65% RH): 24.62 % w/w
CHLORAMINE T anhydrous, average (T18 w, average, 30° C./65% RH): 78.06 % w/w
CHLORAMINE T tri-hydrated, average (T18 w, average, 30° C./65% RH): 97.83 % w/w
Available Chlorine [2]: 24.59 % w/w and 24.86 % w/w
CHLORAMINE T anhydrous [2]: 78.94 % w/w and 79.18 % w/w
CHLORAMINE T tri-hydrated [2]: 97.68 % w/w and 97.99 % w/w
content of active chloramine T compared to T0 (after 18 weeks at 30° C./65% RH): 100.4%
variations in the appearance and weight (after 18 weeks at 30° C./65% RH, envelopes): no significant variations
appearance of the product versus T0 (after 18 weeks at 30° C./65% RH, sealed container): did not present variations from T0
SMILES: Cc1ccc(S(=O)(=O)[N-]Cl)cc1.[Na+] [Chloramine T, chloramine T]
